This is an account of results in patent publication US20170281582A1, “ENHANCER FOR EATING ACTIVITY AND/OR GASTROINTESTINAL ACTIVITY” (KYOWA HAKKO BIO CO., LTD., priority 2012, published 2017).

One test has as its system ddY mice. Briefly: Small intestinal transit (Evans Blue mobility), gastrointestinal motility. Type of test: in vivo. Conditions: ddY mice fasted 18 hours, 30 minutes before test meal. As to the method:
The symbol ** in the figure means a statistically significant difference (P<0.01) when comparing ornithine hydrochloride-administered group (3 g/kg) with control group, and the symbol in the figure means a statistically significant difference (P<0.001) when comparing ornithine hydrochloride-administered group (5 g/kg) with control group. Statistical processing was performed by using ANOVA and Fisher's test.
Gastrointestinal motility function was examined through small intestinal transit measurements according to the following testing method.
Male, 5 to 7-week ddY mice were used. […] After 30 minutes, the mice were orally administered with a dyed test meal (Evans Blue 5%, carboxymethyl cellulose 1%). The animals were killed by cervical dislocation after 5 minutes, and immediately cut open in the stomach to remove the whole small intestine. For evaluation of the gastrointestinal motility, the full length of the small intestine, and the length from the pylorus to the farthest point marked by the movement of Evans Blue were measured. Evans Blue mobility was calculated according to the following equation, and used as an index.
Mobility (%)=(the length from the pylorus to the farthest point marked by the movement of Evans Blue/the full length of small intestine)×100

Another test relates to Wistar rats. As to the kind of experiment: Blood growth hormone (GH) over time after intraduodenal administration. The class given is in vivo. As for the experimental part: Statistical processing was performed by using ANOVA and Fisher's test.
Male, 8 to 9-week Wistar rats were used.

In the case of `Cl.NCCC[C@H](N)C(=O)O` [ornithine hydrochloride, L-ornithine hydrochloride], the “small intestinal transit compared to the control group” value is reported as “significantly increased” with ddY mice (oral 3 g/kg (body weight), P<0.01 (FIG. 3)) and “significantly increased” in the test with ddY mice (oral 5 g/kg (body weight), P<0.001 (FIG. 3)).

With D-Lys3-GHRP-6, in the test on Wistar rats (D-Lys3-GHRP-6 0.8 mg/kg i.v. alone), the “effect of the antagonist alone on blood GH” value was “does not show the effect”. Moreover, the “GH concentration increasing effect of ornithine in presence of ghrelin antagonist” value in the test with Wistar rats (D-Lys3-GHRP-6 0.8 mg/kg i.v. plus ornithine hydrochloride 5 g/kg, vs ornithine hydrochloride alone, P<0.05 (FIG. 1)) is listed as “inhibited”.
